Read-outs that look alike come from different tables or passages of the source.
Tests used:
[1] = tested on: MV4-11; test: In vitro antiproliferative assay, MTT, 72 h; assay type: cell-based, human; conditions: biphenotypic B cell myelomonocytic leukemia MV4-11, 72 h, n.a. = not active in the range of concentrations used (up to 100 µM), read-out: IC50 [µM] ± SD [n = 5] MV4-11
[2] = tested on: LoVo; test: In vitro antiproliferative assay, SRB, 72 h; assay type: cell-based, human; conditions: colon adenocarcinoma LoVo, n.a. = not active in the range of concentrations used (up to 100 µM), read-out: IC50 [µM] ± SD [n = 5] LoVo
Text: (§1) The following human cancer cell lines, representing the most common types of cancer, were chosen for evaluation of the antiproliferative activity of the prepared sulfonamides: lung cancer (A549), breast cancer (MCF-7), colon adenocarcinoma (LoVo), and biphenotypic B cell myelomonocytic leukemia (MV4-11). As a reference, the normal mouse fibroblasts cell line (BALB/3T3) was applied. A549, LoVo and BALB/3T3 cell lines were purchased from the ATCC (American Type Culture Collection, Rockville, MD, USA), MCF-7 cell line—from EACC (The European Collection of Cell Cultures), and MV4-11 cell line was obtained from DSMZ (Leibniz Institute—German Collection of Microorganisms and Cell Culture, Braunschweig, Germany). All these lines were maintained at the Hirszfeld Institute of Immunology and Experimental Therapy (IIET) in Wrocław, Poland.
(§2) We used the following culture media: for A549 cell line: the mixture of RPMI 1640 and OptiMEM (1:1) medium (both from Gibco, Scotland, UK)), 2mM L-glutamine, 1mM sodium pyruvate (Sigma-Aldrich Chemie GmbH, Steinheim, Germany) and 5% fetal bovine serum (FBS; HyClone Laboratories, Logan, UT, USA). MCF-7 cells were cultured in Eagle’s medium (IIET, PAS, Wroclaw, Poland), 2mM L-glutamine and 10% of FBS supplemented with 0.8 mg/L of insulin (Sigma-Aldrich Chemie GmbH, Steinheim, Germany). For LoVo cell line, F12K medium was applied (American Type Culture Collection, Rockville, MD, USA-ATCC), with 5% FBS (HyClone Laboratories, Logan, UT, USA). MV4-11 cells were cultured in RPMI 1640/GlutaMax I medium (Gibco, Thermo Fisher Scientific, Leicestershire, UK) with 1 mM sodium pyruvate (Sigma-Aldrich Chemie GmbH, Steinheim, Germany) and 10% FBS (HyClone Laboratories). In case of BALB/3T3 cells, DMEM (Gibco, Thermo Fisher Scientific) supplemented with 2 mM L-glutamine and 5% FBS was used. Antibiotics: 100 U/mL penicillin (Polfa Tarchomin SA, Warsaw, Poland) and 100 µg/mL streptomycin (Sigma-Aldrich Chemie GmbH, Steinheim, Germany) were present in all the culture media; cells were cultured in a humid atmosphere containing 5% CO2 at 37 °C.
(§3) Twenty-four hours before addition of the tested compounds, each cell line was seeded in 96-well plastic plates (Sarstedt, Numbrecht, Germany) in an appropriate medium at 10^4 cells/well density, except MCF7 cell line: 0.75 × 10^4/well, and A549 cell line: 0.25 × 10^4/well. The studied cell lines were subjected to each of the tested sulfonamides at 4 different concentrations in the range of 100–0.1 µg/mL for 72 h. Cisplatin (Teva Pharmaceuticals, Poland) was used as a reference compound, and DMSO (Sigma-Aldrich Chemie GmbH, Steinheim, Germany) served as a solvent control at concentrations equivalent to these applied in the solutions of the tested sulfonamides. MTT assay was performed for leukemic cells, while sulforhodamine B assay (SRB) for the adherent cells.
(§4) After 72 h of incubation, cells were fixed in situ by gently adding of 50 µL per well of ice-cold 50% TCA (trichloroacetic acid, POCh, Gliwice, Poland) and were incubated at 4 °C for one hour. Each well was then washed five times with water, followed by addition of 50 µL of 0.4% solution of SRB (sulforhodamine B, Sigma-Aldrich Chemie GmbH, Steinheim, Germany) in 1% acetic acid (POCh, Gliwice, Poland), and plates were again incubated at RT for 0.5 h. Plates were washed five times with 1% acetic acid to remove the unbound dye. The stained cells were treated with 10 mM TRIS (Tris base, Sigma-Aldrich, Chemie GmbH, Steinheim, Germany). Absorbance at 540 nm in each well was read with Elisa plate reader (BioTek Synergy H4, Swindon, UK) using the Gen5 software.
(§5) The results are shown as average IC50 values (concentration of the compound causing inhibition of cell proliferation by 50%) ± standard deviation. IC50 values were determined using the Prolab-3 system based on Cheburator 0.4, a software developed by Nevozhay. At each concentration, sulfonamides were tested in triplicates in a single experiment. […]

[3] = tested on: A549; test: In vitro antiproliferative assay, SRB, 72 h; assay type: cell-based, human; conditions: lung cancer A549, 72 h, n.a. = not active in the range of concentrations used (up to 100 µM), read-out: IC50 [µM] ± SD [n = 5] A549
Text: as §1, §2, §3, §4, §5

[4] = tested on: MCF-7; test: In vitro antiproliferative assay, SRB, 72 h; assay type: cell-based, human; conditions: n.a. = not active in the range of concentrations used (up to 100 µM), read-out: IC50 [µM] ± SD [n = 5] MCF-7
Text: as §1, §2, §3, §4, §5

[5] = tested on: BALB/3T3; test: In vitro antiproliferative assay on normal fibroblasts, SRB, 72 h; assay type: cell-based, mouse; conditions: for selectivity: IC50 value for BALB/3T3 line times bigger than for leukemia cells MV4-11: IC50 BALB/3T3 versus IC50 MV4-11; for IC50: normal mouse fibroblasts BALB/3T3, 72 h, SRB, n.a. = not active in the range of concentrations used (up to 100 µM), read-out: IC50 [µM] ± SD [n = 5] Balb/3T3
Text: as §1, §2, §3, §4, §5

[6] = Homo sapiens, MCF7, breast cancer MCF-7, 72 h

| IC50 ([1]; Homo sapiens) [µM] | IC50 ([2]; Homo sapiens) [µM] | IC50 ([3]; Homo sapiens) [µM] | IC50 [4, 6] [µM] | melting point [°C] | Compound | selectivity: IC50 value for BALB/3T3 line times bigger than for leukemia cells MV4-11 [5] [times] | IC50 [5] [µM] | IC50 [1] [µM] | IC50 [2] [µM] | IC50 [3] [µM] | IC50 ([4]; breast cancer MCF-7, 72 h) [µM] |
| --- | --- | --- | --- | --- | --- | --- | --- | --- | --- | --- | --- |
| 3.92 ± 1.74 | 11.8 ± 2.46 | 9.13 ± 1.05 | 16.3 ± 2.11 |  | COc1ccc(-c2ccc(S(=O)(=O)NC3CN(C(C)c4ccccc4)C4CCC3C4)cc2)cc1 (centres unmarked) [Compound 9h] | ~3 | 15.1 ± 2.11 |  |  |  |  |
| 11.2 ± 2.14 | 5.29 ± 2.56 | 2.98 ± 1.38 | 10.3 ± 2.71 |  | CC(c1ccccc1)N1C2CCC(C2)C1CNS(=O)(=O)c1ccc(-c2ccc(F)cc2)cc1 (centres unmarked) [Compound 11i] |  | 13.1 ± 2.68 |  |  |  |  |
| 15.1 ± 3.16 | 15.1 ± 4.94 | 16.4 ± 1.57 | 12.8 ± 4.03 | 128 to 129 | C[C@@H](c1ccccc1)N1C[C@@H](CNS(=O)(=O)c2ccc(-c3ccc(F)cc3)cc2)[C@@H]2CC[C@H]1C2 [Compound 12i, 4’-fluoro-N-(((1S,4S,5R)-2-((S)-1-phenylethyl)-2-azabicyclo[3.2.1]octan-4-yl)methyl)-[1,1’-biphenyl]-4-sulfonamide] |  | 18.4 ± 8.39 |  |  |  |  |
|  |  |  |  | 96 to 98 | C[C@@H](c1ccccc1)N1C(CN(C[C@H]2[C@@H]3CC[C@@H](C3)N2[C@@H](C)c2ccccc2)S(=O)(=O)c2ccc(-c3ccc(F)cc3)cc2)[C@@H]2CC[C@H]1C2 (stereo partly drawn) [Compound 13i, 4’-fluoro-N-(((1S,3R,4R)-2-((S)-1-phenylethyl)-2-azabicyclo[2.2.1]heptan-3-yl)methyl)-N-(((1S,4R)-2-((S)-1-phenylethyl)-2-azabicyclo[2.2.1]heptan-3-yl)methyl)-[1,1’-biphenyl]-4-sulfonamide] |  |  |  |  |  |  |
| 8.28 ± 2.21 | 21.7 ± 3.52 | 32.9 ± 1.36 | 18 ± 2.82 | 155 | O=S(=O)(NC[C@H]1N[C@H]2CC[C@@H]1C2)c1ccc(-c2ccc(F)cc2)cc1 [Compound 10i, N-((1S,3S,4R)-2-azabicyclo[2.2.1]heptan-3-ylmethyl)-4’-fluoro-[1,1’-biphenyl]-4-sulfonamide] | ~4 | 24.4 ± 2.75 |  |  |  |  |
| 12.3 ± 3.25 | 13.3 ± 1.55 | 24.4 ± 0.9 | 12.7 ± 4.91 | 139 to 140 | C[C@@H](c1ccccc1)N1C[C@@H](NS(=O)(=O)c2ccc(-c3ccc(F)cc3)cc2)[C@@H]2CC[C@H]1C2 [Compound 9i, 4’-fluoro-N-((1S,4S,5R)-2-((S)-1-phenylethyl)-2-azabicyclo[3.2.1]octan-4-yl)-[1,1’-biphenyl]-4-sulfonamide] |  | 14.3 ± 3.18 |  |  |  |  |
| 43.6 ± 14.5 | 92.2 ± 12.7 |  |  | 105 to 107 | C[C@@H](c1ccccc1)N1[C@H]2CC[C@H](C2)[C@H]1CNS(=O)(=O)c1ccc(F)cc1 [Compound 11d, 4-fluoro-N-(((1S,3S,4R)-2-((S)-1-phenylethyl)-2-azabicyclo[2.2.1]heptan-3-yl)methyl)benzenesulfonamide] |  |  |  |  |  |  |
| 4.26 ± 3.97 | 7.23 ± 16.2 | 14.1 ± 4.77 | 33 ± 18.9 |  | Cc1ccc(-c2ccc(S(=O)(=O)NCC3C4CCC(C4)N3C(C)c3ccccc3)cc2)cc1 (centres unmarked) [Compound 11g] | > 10 | 45.3 ± 17.3 |  |  |  |  |
| 56.1 ± 26.9 | 44.5 ± 10.9 | 84.4 ± 26.1 |  |  | CC(c1ccccc1)N1C2CCC(C2)C1CN(CC1C2CCC(C2)N1C(C)c1ccccc1)S(=O)(=O)c1ccc(-c2ccccc2)cc1 (centres unmarked) [Compound 13f] |  |  |  |  |  |  |
| 13.8 ± 2.64 | 15.8 ± 2.26 | 12.8 ± 1.38 | 22.4 ± 4.31 |  | COc1ccc(-c2ccc(S(=O)(=O)NCC3C4CCC(C4)N3C(C)c3ccccc3)cc2)cc1 (centres unmarked) [Compound 11h] |  | 12.4 ± 1.82 |  |  |  |  |
| 29.6 ± 12.9 | 83.2 ± 11.8 |  |  | 124 to 127 | Cc1ccc(S(=O)(=O)NC[C@H]2[C@@H]3CC[C@@H](C3)N2[C@@H](C)c2ccccc2)cc1 [Compound 11c, (1S,3R,4R)-4-methyl-N-((2-((S)-1-phenylethyl)-2-azabicyclo[2.2.1]heptan-3-yl)methyl) benzenesulfonamide] |  |  |  |  |  |  |
| 3.09 ± 1.56 | 19.3 ± 6.71 | 7.66 ± 2.08 | 54 ± 16 |  | CC(c1ccccc1)N1C2CCC(C2)C1CNS(=O)(=O)c1ccc(-c2ccccc2)cc1 (centres unmarked) [Compound 11f] | > 10 | 38.8 ± 7.88 |  |  |  |  |
| 16.1 ± 4.95 | 33.7 ± 5.13 | 38.4 ± 2.61 | 39.1 ± 7.14 |  | CC(c1ccccc1)N1C2CCC(C2)C1CNS(=O)(=O)c1ccc(C(F)(F)F)cc1 (centres unmarked) [Compound 11e] |  | 37.5 ± 7.8 |  |  |  |  |
|  |  |  |  |  | N.N.[Cl][Pt][Cl] [cisplatin, reference compound] |  | 10.7 ± 3.3 | 1.78 ± 1.22 | 11.8 ± 3.87 | 3.02 ± 1.79 | 10.3 ± 6.23 |
| 7.15 ± 3.53 | 12.4 ± 2.44 | 11.3 ± 0.93 | 17.3 ± 2.29 | 95 | C[C@@H](c1ccccc1)N1[C@H]2CC[C@H](C2)[C@H]1CNS(=O)(=O)c1ccc(-c2ccccc2F)cc1 [Compound 11j, 2’-fluoro-N-(((1S,3S,4R)-2-((S)-1-phenylethyl)-2-azabicyclo[2.2.1]heptan-3-yl)methyl)-[1,1’-biphenyl]-4-sulfonamide] |  | 12.3 ± 1.88 |  |  |  |  |
| 52.7 ± 14 |  |  |  | 107 to 109 | C[C@@H](c1ccccc1)N1[C@H]2CC[C@H](C2)[C@@H]1CNS(=O)(=O)c1ccccc1 [Compound 11b, (1S,3R,4R)-N-((2-((S)-1-phenylethyl)-2-azabicyclo[2.2.1]heptan-3-yl)methyl) benzenesulfonamide] |  |  |  |  |  |  |
| 8.76 ± 3.45 | 14.5 ± 2.54 | 13.6 ± 1.1 | 18.8 ± 3.25 |  | CC(c1ccccc1)N1CC(NS(=O)(=O)c2ccc(-c3ccccc3)cc2)C2CCC1C2 (centres unmarked) [Compound 9f] |  | 14.1 ± 2.63 |  |  |  |  |

Reference: publication PMC7664408, “Biaryl Sulfonamides Based on the 2-Azabicycloalkane Skeleton—Synthesis and Antiproliferative Activity” (Materials, 2020)
